Where “and” joins values, the source holds several entries; their conditions need not be identical. Identical values can stand only once. Entries after “also recorded” stand apart in the source; their conditions may differ.
Assays:
[1] = system: Arabidopsis stomatal development mutants (spch, mute, fama, er, erl1, erl2, hdg2, atml1, scrm, scrm2, scrm-D and suppressors); assay: Stomatal development bioassay in mutant seedlings, liquid culture; assay type: in vivo; conditions: 50 μM; for meristemoids density: single seedlings n=8 (Fig. 3c)
Description: Arabidopsis accession Columbia (Col-0) was used as wild-type. […] Their genotype and transcript reduction were confirmed. The presence of transgenes/mutant alleles were confirmed by genotyping. For liquid culture with Stomidazolone (AYSJ929, compound 3), the analogs (AYSJ1059 (compound 5) and AYSJ1061 (compound 6)), degraded compound lzx103 (compound 4), and SIM3* (compound 7), all compounds were dissolved in dimethyl sulfoxide (DMSO, Molecular biology grade, Fujifilm Wako, Japan 046-21981), Col-0 seeds were sown in 96-well plates (TL5003; True Line) containing 95 μL of 1/2 MS media containing 0.5% sucrose with rotary shaking at 140 rpm under continuous light at 22 °C. Five μL of compounds were dissolved in DMSO at 10 mM and diluted with liquid 1/2 MS media to 1 mM and added on 1-day-old seedlings (final concentration, 50 μM). Seedlings were incubated for 8 days, and at day 9 seedling abaxial cotyledons were observed through confocal microscopy. For liquid culture of scrm-D_S343 and scrm-D_S423, 1/2 MS liquid media without sucrose was used. For the solid culture, 0, 20, 50 or 100 μM Stomidazolone were solidified with low-melting agarose (5805S, PrimeGelTM Agarose LMT 1-20 K, TAKARA Bio). Briefly, 1/2 MS salt, 0.5% sucrose, and 0.8% low melting agarose were mixed in water and autoclaved. After cooling the medium at around 30 °C, Stomidazolone (500x, dissolved in DMSO) was added and poured into 90 mm petri dishes (Asnol Petri Dish JP φ90 x 15 mm, 3-1491-01, AS ONE). Col-0 seeds were sown on Stomidazolone-containing 1/2 MS agarose media and grown under continuous light for 9 days.
For confocal microscopy, cell peripheries of seedlings were visualized with propidium iodide (Sigma, P4170). Images were acquired using LSM800 or LSM700 (Zeiss) using a 20x lens. The GFP, YFP reporter and PI signals were detected with excitation at 488 nm and an emission filter of 410 to 546 nm, at 488 nm and an emission filter of 410 to 546 nm, and with excitation at 561 nm and 582–617 nm emission range, respectively. Raw data were collected with 1024 × 1024 pixel images. For qualitative image presentation, Adobe Photoshop CC was used to trim and uniformly adjust the contrast/brightness.
For quantitative analysis of the abaxial leaf epidermis, confocal images were taken on the days after germination as indicated in the Figure legends. Preparation of images was done as described previously[32],[70]. For counting epidermal cell types, stomatal density, stomatal precursor cells (meristemoids), total stomata-lineage cells (stomata and meristemoids) were calculated by counting cell types in an area of 0.4 mm^2 (0.63 mm × 0.63 mm) and plotted as per mm^2. A series of Z-stack confocal images was obtained to obtain images covering the epidermis and capturing GFP/YFP signal from the reporter lines. The area and the number of epidermal cells were quantified by using FIJI-ImageJ. Statistical analyses were performed using R ver. 4.0.2. Sample sizes (n) are indicated and defined in each legend. For the multiple sample comparison, 1-way ANOVA was performed followed by a post hoc Tukey HSD test. For the two-sample comparison, Student’s T-test was performed. Graphs were generated using R ggplot2 package. For all boxplots, each box represents IQR (interquartile range), in which top, middle line, and bottom indicating 75, 50, and 25 percentiles, respectively, and the bar representing maximum to minimal values. Each magenta dot represents jittered individual data point. The datapoints that go beyond the bar are outliers, which are indicated as black dots. If the data point is greater than Q3 + 1.5*IQR (above the third quartile is greater than 1.5 times of the interquartile range) or less than Q1 − 1.5*IQR, that data point is classified as outlier. The color of Boxplot graph was based on ColorBrewer.org. The value of n, the number of each experiment or samples, the means of error bars, and how statistical significance was defined are indicated in a relevant figure legend. […]

[2] = system: Commelina benghalensis stomatal opening induced by light; assay: Measurement of stomatal opening; assay type: in vivo; conditions: 50 µM; light 3 h (Supplementary Fig. 1)
Description: The experiments were performed as described previously[30],[68]. Briefly, Stomidazolone or ABA were added to a multi-well plate with basal buffer [5 mM MES/bistrispropane (pH 6.5), 50 mM KCl, and 0.1 mM CaCl2] to be diluted to a final concentration of 50 or 20 µM, respectively. C. benghalensis plants were incubated in the dark overnight; then, 4 mm diameter leaf discs were excised from fully expanded leaves using a hole punch (Biopsy Punch, Kai Medical). Samples were immersed in a basal buffer containing compounds for 30 min before being exposed to light (150 µmol m^−2 s^−1 red light and 50 µmol m^−2 s^−1 blue light) for 3 h. The stomatal apertures were observed using a stereoscopic microscope (BX43; Olympus). The microscopic images were acquired with a charge-coupled device (CCD) camera (DP27; Olympus), followed by autofocus image processing using cellSens standard software (Olympus). Measurement of stomatal apertures of C. benghalensis was performed by using an automation program, DeepStomata[69].

[3] = target: T1, MUTE+AD (control yeast) (Arabidopsis thaliana, UniProt Q9M8K6); assay: Y2H quantitative α-galactosidase assay, control pair MUTE+AD; assay type: cell-based; conditions: individual replicates, listed as AYSJ929
T1 construct: expressed in transfected cells; host or cells: yeast strain AH109
T1 sequence (Q9M8K6 1-202): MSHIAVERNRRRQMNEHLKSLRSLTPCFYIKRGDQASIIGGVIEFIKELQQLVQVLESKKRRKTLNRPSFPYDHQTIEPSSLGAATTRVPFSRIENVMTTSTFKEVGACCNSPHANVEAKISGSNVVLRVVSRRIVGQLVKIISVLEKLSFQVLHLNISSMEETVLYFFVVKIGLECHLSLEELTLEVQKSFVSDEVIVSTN
Excerpt: Supplement 41467_2024_53214_MOESM7_ESM.xlsx, sheet "Fig.6b" | column: a-galactosidase [milliunits /(ml x cell)]

[4] = er erl1, single seedlings n=8 (Fig. 4f)
[5] = scrm-D_S343, single seedlings n=8 (Fig. 5n)

O=C1C(c2ccccc2)=NC(NS(=O)(=O)c2ccccc2)(c2ccccc2)N1S(=O)(=O)c1ccccc1 (centres unmarked) [Stomidazolone]
effect on epidermal phenotype (in words) ([1]; er (er-105)): the number of stomata drastically decreased and the meristemoids vastly increased | effect on epidermal phenotype (in words) ([1]; er erl1): did not reduce the number of stomata, although it increased the number of meristemoids | Stomata density [1, 4]: 204 per mm2 and 275 per mm2 and 292 per mm2 | Total (stomata+meristemoid) density [1, 4]: 382 per mm2 and 272 per mm2 and 360 per mm2 and 323 per mm2 and 292 per mm2 and 347 per mm2 and 369 per mm2 | effect on epidermal phenotype (in words) ([1]; er erl1 erl2): insensitive | Meristemoid density ([1]; er erl1 erl2, single seedlings n=8 (Fig. 4j, replotted 4k)): 0 per mm2 | effect on epidermal phenotype (in words) ([1]; er erl2): The number of arrested meristemoids is even more increased | effect on epidermal phenotype (in words) ([1]; fama): significantly reduced the number of fama tumors whereas increasing the number of arrested meristemoids | effect on epidermal phenotype (in words) ([1]; hdg2): increased the meristemoid numbers of hdg2 epidermis while the total numbers of stomata and meristemoids were unaffected | Total (stomata+meristemoid) density ([1]; hdg2 (hdg2-2), single seedlings n=8 (Fig. 4m)): 149 per mm2 and 112 per mm2 and 171 per mm2 and 93 per mm2 and 137 per mm2 and 107 per mm2 and 141 per mm2 | effect on epidermal phenotype (in words) ([1]; hdg2 atml1): hypersensitivity | Total (stomata+meristemoid) density ([1]; hdg2 atml1 (hdg2-2 atml1-3), single seedlings n=8 (Fig. 4o)): 92 per mm2 and 141 per mm2 and 156 per mm2 and 153 per mm2 and 112 per mm2 and 109 per mm2 | effect on epidermal phenotype (in words) ([1]; mute): not enhanced | meristemoids density ([1]; mute (mute-1)): 296 per 1 mm2 and 243 per 1 mm2 and 204 per 1 mm2 and 289 per 1 mm2 and 350 per 1 mm2 and 267 per 1 mm2 and 187 per 1 mm2 | effect on epidermal phenotype (in words) ([1]; scrm2-1): reduction of the number of stomata with meristemoid arrests | Stomatal index SI (%) ([1]; scrm2-1, single seedlings n=8 (Fig. 5f)): 25.2% and 23.5% and 22.4% and 18.0% and 27.0% and 24.1% and 26.7% and 15.5% | effect on epidermal phenotype (in words) ([1]; scrm (ice1-2)): severely reduced stomatal lineage initiation | effect on epidermal phenotype (in words) ([1]; scrm scrm2-1): no effects | Stomatal index SI (%) ([1]; scrm scrm2-1, single seedlings n=7 (Fig. 5h)): 0% | effect on epidermal phenotype (in words) ([1]; scrm-D): not affected | Stomatal index SI (%) ([1]; scrm-D, single seedlings n=8 (Fig. 5j)): 100.0% and 99.0% and 98.0% | SI (%) [1, 5]: 10.3% and 14.9% and 8.1% and 11.9% and 12.8% and 12.5% and 9.6% and 12.1% | small cells index (%) [1, 5]: 31.8% and 53.1% and 60.4% and 54.1% and 50.8% and 47.7% and 36.1% | effect on epidermal phenotype (in words) ([1]; scrm-D_S343 and scrm-D_S423): triggered excessive formation of arrested meristemoids | effect on epidermal phenotype (in words) ([1]; scrm-D_S343 scrm2-1 and scrm-D_S423 scrm2-1): insensitivity | SI (%) ([1]; scrm-D_S423, single seedlings n=8 (Fig. 5p)): 0.7% and 1.2% and 0.0% and 1.4% and 3.0% | effect on epidermal phenotype (in words) ([1]; spch): no effects | meristemoids density ([1]; spch (spch-3)): 0 per 1 mm2 | effect on stomatal movement (in words) [2]: did not exhibit any discernable effects; also recorded: does not affect | a-galactosidase ([3]; 10 µM): 0.24 milliunits /(ml x cell) and 0.60 milliunits /(ml x cell) and 0.40 milliunits /(ml x cell) | a-galactosidase ([3]; 50 µM): 0.22 milliunits /(ml x cell) and 0.36 milliunits /(ml x cell) and 0.19 milliunits /(ml x cell) | a-galactosidase ([3]; 100 µM): 0.20 milliunits /(ml x cell) and 0.52 milliunits /(ml x cell) and 0.42 milliunits /(ml x cell)

— article PMC11500415, “Chemical inhibition of stomatal differentiation by perturbation of the master-regulatory bHLH heterodimer via an ACT-Like domain” (Nature Communications, 2024)
